# Test results: paper PMC12455437, “Bispecific DNA‐Peptide Probes for Targeting Receptor Pairs on Live Cells” (Angewandte Chemie (International Ed. in English), 2025)
# Where a SMILES comes first, the peptide text is derived from it. [ ]: non-standard residue; d: D form. The star is where a group is joined. Dolaproine = CO[C@@H]([C@@H]1CCCN1)[C@@H](C)C(=O)O; Dil = CC[C@H](C)[C@H](NC)[C@@H](CC(=O)O)OC; X1 = C[C@@H](N*)[C@@H](O)c1ccccc1; NMeV = CN[C@H](C(=O)O)C(C)C
# System: HEK‐293 cells (VEGFR2−, αvβ3−)
# Experiment: AlamarBlue cell viability, HEK-293
# Format: cell-based
# Conditions: 200 nM MMAE in free form, 10 min in PBS, 37 °C, 10% Alamar blue 6 h; HUVEC, HEK-293, HCT-116, A498 compared (Figure S44)
# Text: Figure 6 Cytotoxicity of cathepsin B‐cleavable vcMMAE‐DNA‐peptide complexes LC40 and components. a) Viability of HUVECs after treatment with unlabeled DNA complex 2), vcMMAE‐template DNA 3), single‐stranded monovalent DNA‐peptide conjugates 4 and 5), heterobivalent LC40 lacking cytotoxic payload 6), both i) single‐stranded monovalent DNA‐peptide conjugates followed by ii) addition of vcMMAE‐template 7), with i) unlabeled DNA complex followed by addition of ii) both single‐stranded monovalent DNA‐peptide conjugates and subsequently iii) vcMMAE‐template 8 and 9), vcMMAE‐LC40 at varied concentrations 10–15) or with unlabeled DNA complex prior to addition of vcMMAE‐LC40 16 and 17). […] Flow cytometric analysis of HUVECs mixed with e) eGFP‐expressing HEK‐293 cells or f) anti‐EpCAM antibody‐stained HCT‐116 cells assessed by dead cell staining. […]
# The collected HUVEC cells were washed twice with OptiMEM and added to 2.4 mL OptiMEM in T25 flasks.The siRNA-lipofectamine complex (600 µL) was added to 2.4 mL HUVEC cells, and the mixture was incubated at 37°C, 5% CO 2 for 4 h. […] The transfection efficiency was calculated by flow cytometry and comparing the signal of anti-integrin antibody (A488) from HUVEC cells transfected with siRNA + lipofectamine with that from the cells with mock transfection (Fig. S39). […]
structure (smiles),measurement,value
"CC[C@H](C)[C@@H]([C@@H](CC(=O)N1CCC[C@H]1[C@H](OC)[C@@H](C)C(=O)N[C@H](C)[C@@H](O)c1ccccc1)OC)N(C)C(=O)[C@@H](NC(=O)[C@@H](NC)C(C)C)C(C)C [MMAE, monomethyl auristatin E] (H-[NMeV]V[Dil][Dolaproine]-X1)","cytotoxic effect of MMAE in free form, comparison of cell lines",most vulnerable
